# pKd: −log10 of the molar value. Like-named read-outs stand apart in the source and are kept apart here. Positions of bridges follow the written chain, without caps; N, C: chain ends. Residues, ends and D or L forms follow the SMILES beside them.
# How the values were obtained:
# Format in all cases: binding
# FGF-R3C ECD = biological target: T1, FGF-R3C ECD (Homo sapiens, UniProt P22607); experiment: biochemical; parameters: DNA constructs for the extracellular domain (ECD) of human FGF-; HPC4 (C); made in house; host or cells: HEK 293-6E
# T1 sequence (P22607 23-375 limits assumed): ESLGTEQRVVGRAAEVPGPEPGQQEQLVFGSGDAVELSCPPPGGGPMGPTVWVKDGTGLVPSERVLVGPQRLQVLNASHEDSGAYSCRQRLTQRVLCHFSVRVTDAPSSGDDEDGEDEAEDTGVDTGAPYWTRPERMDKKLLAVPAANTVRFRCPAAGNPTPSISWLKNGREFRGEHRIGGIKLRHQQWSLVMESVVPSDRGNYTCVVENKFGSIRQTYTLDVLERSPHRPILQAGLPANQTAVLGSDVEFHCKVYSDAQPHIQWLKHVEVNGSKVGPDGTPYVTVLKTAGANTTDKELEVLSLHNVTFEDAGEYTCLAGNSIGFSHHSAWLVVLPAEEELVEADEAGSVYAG
# Method: (§1) KD affinity binding measurements were obtained by biolayer interferometry (BLI) instruments (Fortebio Octet HTX, or Sartorius Octet RH16 using either 8 or 16 channel mode.
# (§2) For single concentration binding experiments, 50 μM peptide stocks in folding buffer were diluted 1:50 in mRNA display selection buffer (PBS pH7.4 supplemented with 0.05% Tween-20 and 0.01% BSA) in either a 96 well black plate, or a 384 well tilted bottom microplate (ForteBio). Biotinylated FGF-R protein was loaded onto Streptavidin-functionalised biosensors (ForteBio) and immersed into ~1 μM peptide to obtain association kinetics curves. Dissociation kinetics curves were obtained by subsequent immersion of ligand-associated loaded sensors into a 1:50 dilution of folding buffer in mRNA display selection buffer. Fitted KD data was adjusted for concentration as determined by UPLC-CAD.
# (§3) For accurate multi-concentration KD determination, dilution series of each peptide were made, and association and dissociation kinetics curves were obtained as above for each concentration to fit a multi-point KD binding model. Data collection and analysis was performed using the Octet Instrument Control […]
# (§4) concentration assay kinetics curves shown in supplementary Figure S 19-24.
# FGF-R1C ECD = biological target: T2, FGF-R1C ECD (Homo sapiens, UniProt P11362); experiment: biochemical; parameters: DNA constructs for the extracellular domain (ECD) of human FGF-; HPC4 (C); made in house; host or cells: HEK 293-6E
# T2 sequence (P11362 22-376 limits assumed): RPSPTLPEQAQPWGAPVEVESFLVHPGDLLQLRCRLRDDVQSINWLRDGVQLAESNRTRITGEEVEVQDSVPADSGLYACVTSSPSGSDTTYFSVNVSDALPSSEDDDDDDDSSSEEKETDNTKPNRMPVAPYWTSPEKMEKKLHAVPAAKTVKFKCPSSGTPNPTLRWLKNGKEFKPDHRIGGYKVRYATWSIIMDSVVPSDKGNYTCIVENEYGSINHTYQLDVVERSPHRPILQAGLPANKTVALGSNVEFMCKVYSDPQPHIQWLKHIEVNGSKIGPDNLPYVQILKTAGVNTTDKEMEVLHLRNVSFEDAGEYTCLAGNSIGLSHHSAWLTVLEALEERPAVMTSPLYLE
# Method: as §1, §2, §3, §4
# FGF-R4 ECD = biological target: T3, FGF-R4 ECD (Homo sapiens, UniProt P22455); experiment: single concentration BLI of crude peptides; settings: read-out: KD (4)
# T3 construct: DNA constructs for the extracellular domain (ECD) of human FGF-; HPC4 (C); made in house; host or cells: HEK 293-6E
# T3 sequence (P22455 22-369 limits assumed): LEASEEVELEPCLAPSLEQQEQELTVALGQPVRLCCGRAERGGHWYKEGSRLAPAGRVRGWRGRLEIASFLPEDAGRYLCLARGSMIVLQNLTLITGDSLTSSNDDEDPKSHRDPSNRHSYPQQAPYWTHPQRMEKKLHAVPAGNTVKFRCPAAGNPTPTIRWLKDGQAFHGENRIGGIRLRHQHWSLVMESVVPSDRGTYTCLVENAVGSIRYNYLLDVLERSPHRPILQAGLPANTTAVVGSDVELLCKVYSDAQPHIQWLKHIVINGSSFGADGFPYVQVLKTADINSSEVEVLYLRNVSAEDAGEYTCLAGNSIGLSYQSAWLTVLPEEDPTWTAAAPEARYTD
# Method: as §1
# as §2, with “UPLC-CAD. […]” for “UPLC-CAD.”
# [1] = crude T18 selection 1 (1:1:1) peptides, single concentration BLI (Table S4)
# [2] = crude NNK peptides, single concentration BLI (Table S3)
SMILES,pKd (FGF-R3C ECD),pKd (FGF-R1C ECD),pKd (FGF-R4 ECD; [1]),pKd (FGF-R4 ECD; [2])
CC[C@H](C)[C@@H]1NC(=O)[C@H](CC(N)=O)NC(=O)[C@H](CCCCN)NC(=O)[C@H](Cc2ccc(O)cc2)NC(=O)[C@@H](NC(=O)[C@H](CCSC)NC(C)=O)CSSC[C@@H](C(=O)NCC(=O)N[C@@H](CO)C(=O)NCC(=O)N[C@@H](CO)C(=O)N[C@@H](CC(=O)O)C(=O)N[C@@H](Cc2ccc(O)cc2)C(=O)N[C@@H](CCCCN)C(=O)N[C@@H](CC(=O)O)C(=O)N[C@@H](CC(=O)O)C(=O)N[C@@H](CC(=O)O)C(=O)N[C@@H](CC(=O)O)C(=O)N[C@@H](CCCCN)C(N)=O)NC(=O)[C@H](Cc2ccccc2)NC(=O)[C@H](C(C)C)NC(=O)[C@H](CC(C)C)NC(=O)[C@H](C(C)C)NC(=O)CNC(=O)[C@H](CC(N)=O)NC(=O)[C@H](CC(=O)O)NC1=O (Ac-MCYKNIDNGVLVFCGSGSDYKDDDDK-NH2; disulfide 2-14),< 5.00,< 5.00,7.85,–
CC[C@H](C)[C@@H]1NC(=O)[C@H](CCCCN)NC(=O)[C@H](Cc2ccc(O)cc2)NC(=O)[C@H]([C@@H](C)CC)NC(=O)[C@H]([C@@H](C)O)NC(=O)[C@H]([C@@H](C)CC)NC(=O)[C@H](Cc2c[nH]cn2)NC(=O)[C@@H](NC(=O)[C@H](CCSC)NC(C)=O)CSSC[C@@H](C(=O)NCC(=O)N[C@@H](CO)C(=O)NCC(=O)N[C@@H](CO)C(=O)N[C@@H](CC(=O)O)C(=O)N[C@@H](Cc2ccc(O)cc2)C(=O)N[C@@H](CCCCN)C(=O)N[C@@H](CC(=O)O)C(=O)N[C@@H](CC(=O)O)C(=O)N[C@@H](CC(=O)O)C(=O)N[C@@H](CC(=O)O)C(=O)N[C@@H](CCCCN)C(N)=O)NC(=O)[C@H](Cc2ccc(O)cc2)NC(=O)[C@H](CCCNC(=N)N)NC(=O)[C@H](CC(C)C)NC1=O (Ac-MCHITIYKILRYCGSGSDYKDDDDK-NH2; disulfide 2-13),< 5.00,< 5.00,–,6.91
CSCC[C@H](NC(C)=O)C(=O)N[C@H]1CSSC[C@@H](C(=O)NCC(=O)N[C@@H](CO)C(=O)NCC(=O)N[C@@H](CO)C(=O)N[C@@H](CC(=O)O)C(=O)N[C@@H](Cc2ccc(O)cc2)C(=O)N[C@@H](CCCCN)C(=O)N[C@@H](CC(=O)O)C(=O)N[C@@H](CC(=O)O)C(=O)N[C@@H](CC(=O)O)C(=O)N[C@@H](CC(=O)O)C(=O)N[C@@H](CCCCN)C(N)=O)NC(=O)[C@H](Cc2ccc(O)cc2)NC(=O)[C@H](C(C)C)NC(=O)[C@H](CC(C)C)NC(=O)[C@H](C(C)C)NC(=O)[C@H](CCCCN)NC(=O)[C@H](CC(N)=O)NC(=O)[C@H](CC(C)C)NC(=O)[C@H](Cc2ccccc2)NC(=O)[C@H](CC(N)=O)NC(=O)[C@H](Cc2ccc(O)cc2)NC(=O)[C@H](Cc2ccc(O)cc2)NC1=O (Ac-MCYYNFLNKVLVYCGSGSDYKDDDDK-NH2; disulfide 2-14),< 5.00,< 5.00,8.10,–
CC[C@H](C)[C@@H]1NC(=O)[C@H](CO)NC(=O)[C@H](Cc2ccccc2)NC(=O)[C@H](Cc2c[nH]cn2)NC(=O)CNC(=O)[C@@H](NC(=O)[C@H](CCSC)NC(C)=O)CSSC[C@@H](C(=O)NCC(=O)N[C@@H](CO)C(=O)NCC(=O)N[C@@H](CO)C(=O)N[C@@H](CC(=O)O)C(=O)N[C@@H](Cc2ccc(O)cc2)C(=O)N[C@@H](CCCCN)C(=O)N[C@@H](CC(=O)O)C(=O)N[C@@H](CC(=O)O)C(=O)N[C@@H](CC(=O)O)C(=O)N[C@@H](CC(=O)O)C(=O)N[C@@H](CCCCN)C(N)=O)NC(=O)[C@H](Cc2c[nH]c3ccccc23)NC(=O)[C@H](CCCCN)NC(=O)[C@H](Cc2ccccc2)NC(=O)[C@H](Cc2c[nH]c3ccccc23)NC(=O)[C@H]([C@@H](C)O)NC1=O (Ac-MCGHFSITWFKWCGSGSDYKDDDDK-NH2; disulfide 2-13),< 5.00,< 5.00,–,< 5.00

# Reference: publication PMC10763615, “Identification and engineering of potent cyclic peptides with selective or promiscuous binding through biochemical profiling and bioinformatic data analysis” (RSC Chemical Biology, 2023)
